Measurements from patent US10906906B2, “Organic compounds” (INTRA-CELLULAR THERAPIES, INC., priority 2016, dated 2021).

Molecular target: μ (MOP) (h) receptor (Homo sapiens, UniProt P35372)
Assay: Cellular functional assay, μ (MOP) (h) antagonist effect (cAMP, HTRF)
Format: cell-based
Details: human recombinant (CHO cells)
Experimental: The compounds are tested at several concentrations to determine their IC50 or EC50. Cellular agonist effects are calculated as percent of control response to a known reference agonist for each target and cellular antagonist effect is calculated as a percent inhibition of control reference agonist response for each target. The following assay is performed to determine the effect of the Compound of Formula II-B on the μ (MOP) (h) receptor: [table] The results are expressed as a percent of control agonist response: and as a percent inhibition of control agonist response: obtained in the presence of the Compound of Formula II-B or II-C. […] For the antagonists, the apparent dissociation constants (KB) are calculated using the modified Cheng Prusoff equation: [formula] where A=concentration of reference agonist in the assay, and E[…]=EC50 value of the reference agonist.

Chain of μ (MOP) (h) receptor (P35372 whole entry): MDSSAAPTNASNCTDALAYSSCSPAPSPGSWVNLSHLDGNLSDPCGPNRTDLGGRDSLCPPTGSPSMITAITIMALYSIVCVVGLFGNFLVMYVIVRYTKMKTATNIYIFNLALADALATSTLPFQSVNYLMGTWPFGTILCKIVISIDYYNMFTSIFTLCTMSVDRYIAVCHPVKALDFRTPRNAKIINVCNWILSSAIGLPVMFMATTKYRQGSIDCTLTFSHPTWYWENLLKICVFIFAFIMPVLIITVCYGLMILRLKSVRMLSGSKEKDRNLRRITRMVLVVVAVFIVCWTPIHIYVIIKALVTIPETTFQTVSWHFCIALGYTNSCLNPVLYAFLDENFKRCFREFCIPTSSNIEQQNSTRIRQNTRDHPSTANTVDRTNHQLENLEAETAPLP

SMILES | IC50 (DAMGO (20 nM) stimulus, cAMP, 10 min @ 37° C.) [nM] | Kb (modified Cheng Prusoff equation, DAMGO (20 nM), read-out: μ (MOP) (h) (antagonist effect) KB (apparent dissociation constant)) [nM] | IC50 (unit inferred, highest concentration tested, DAMGO (20 nM)) [nM]
CN1C(=O)CN2c3c(cccc31)[C@@H]1CN(CCCc3n[nH]c4cc(F)ccc34)CC[C@@H]12 [Formula II-B] | 1300 | 140 | –
Fc1ccc2c(CCCN3CC[C@H]4[C@@H](C3)c3cccc5c3N4CCN5)n[nH]c2c1 [Formula II-C] | – | – | > 10000
